How the values were obtained:
Assay in all cases: Test C preemergence
Assay type in all cases: in vivo
Conditions in all cases: scale 0 to 100, 0 no effect, 100 complete control
corn (Zea mays) = tested on: corn (Zea mays)
Method in brief: (§1)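 Herbicidal effect, applied preemergence to sown seeds or postemergence to 1- to 4-leaf plants, was scored visually 13 to 15 d after application, 0 to 100 versus controls.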

[1] = tested on: blackgrass (Alopecurus myosuroides)
Method in brief: as §1

[2] = tested on: oilseed rape (Brassica napus)
Method in brief: as §1

[3] = tested on: lambsquarters (Chenopodium album)
Method in brief: as §1

[4] = tested on: waterhemp (common waterhemp, Amaranthus rudis)
Method in brief: as §1

soybean (Glycine max) = tested on: soybean (Glycine max)
Method in brief: as §1

[5] = tested on: ryegrass, Italian (Italian ryegrass, Lolium multiflorum)
Method in brief: as §1

[6] = tested on: nutsedge, yellow (yellow nutsedge, Cyperus esculentus)
Method in brief: as §1

[7] = tested on: Galium (catchweed bedstraw, Galium aparine)
Method in brief: as §1

[8] = tested on: velvetleaf (Abutilon theophrasti)
Method in brief: as §1

[9] = tested on: morningglory (Ipomoea coccinea)
Method in brief: as §1

[10] = tested on: wheat (winter wheat, Triticum aestivum)
Method in brief: as §1

[11] = tested on: crabgrass, large (large crabgrass, Digitaria sanguinalis)
Method in brief: as §1

[12] = tested on: johnsongrass (Sorghum halepense)
Method in brief: as §1

[13] = tested on: pigweed (Amaranthus retroflexus)
Method in brief: as §1

[14] = tested on: barnyardgrass (Echinochloa crus-galli)
Method in brief: as §1

Structure (SMILES): CN1CC(c2cccc(OC(F)(F)C(F)F)c2)C(C(=O)Nc2ccc(F)c(F)c2F)C1=O (stereo not shown) [Compound 429]
- Plant response rating, Corn (corn (Zea mays); 31 g ai/ha): 0
- Plant response rating, Corn (corn (Zea mays); 62 g ai/ha): 40
- Plant response rating, Corn (corn (Zea mays); 125 g ai/ha): 65
- Plant response rating, Corn (corn (Zea mays); 250 g ai/ha): 90
- Plant response rating, Blackgrass ([1]; 31 g ai/ha): 70
- Plant response rating, Blackgrass ([1]; 62 g ai/ha): 90
- Plant response rating, Blackgrass ([1]; 125 g ai/ha): 90
- Plant response rating, Blackgrass ([1]; 250 g ai/ha): 95
- Plant response rating, Oilseed Rape ([2]; 31 g ai/ha): 80
- Plant response rating, Oilseed Rape ([2]; 62 g ai/ha): 80
- Plant response rating, Oilseed Rape ([2]; 125 g ai/ha): 90
- Plant response rating, Oilseed Rape ([2]; 250 g ai/ha): 90
- Plant response rating, Lambsquarters ([3]; 31 g ai/ha): 60
- Plant response rating, Lambsquarters ([3]; 62 g ai/ha): 75
- Plant response rating, Lambsquarters ([3]; 125 g ai/ha): 75
- Plant response rating, Lambsquarters ([3]; 250 g ai/ha): 85
- Plant response rating, Waterhemp ([4]; 62 g ai/ha): 85
- Plant response rating, Waterhemp ([4]; 125 g ai/ha): 90
- Plant response rating, Waterhemp ([4]; 250 g ai/ha): 90
- Plant response rating, Soybean (soybean (Glycine max); 125 g ai/ha): 0
- Plant response rating, Soybean (soybean (Glycine max); 250 g ai/ha): 10
- Plant response rating, Ryegrass, Italian ([5]; 62 g ai/ha): 85
- Plant response rating, Ryegrass, Italian ([5]; 125 g ai/ha): 85
- Plant response rating, Ryegrass, Italian ([5]; 250 g ai/ha): 65
- Plant response rating, Nutsedge, Yellow ([6]; 31 g ai/ha): 0
- Plant response rating, Nutsedge, Yellow ([6]; 62 g ai/ha): 0
- Plant response rating, Nutsedge, Yellow ([6]; 125 g ai/ha): 0
- Plant response rating, Nutsedge, Yellow ([6]; 250 g ai/ha): 0
- Plant response rating, Galium ([7]; 31 g ai/ha): 100
- Plant response rating, Galium ([7]; 62 g ai/ha): 100
- Plant response rating, Galium ([7]; 125 g ai/ha): 100
- Plant response rating, Galium ([7]; 250 g ai/ha): 100
- Plant response rating, Velvetleaf ([8]; 62 g ai/ha): 40
- Plant response rating, Velvetleaf ([8]; 125 g ai/ha): 30
- Plant response rating, Velvetleaf ([8]; 250 g ai/ha): 45
- Plant response rating, Morningglory ([9]; 31 g ai/ha): 35
- Plant response rating, Morningglory ([9]; 62 g ai/ha): 30
- Plant response rating, Morningglory ([9]; 125 g ai/ha): 20
- Plant response rating, Morningglory ([9]; 250 g ai/ha): 60
- Plant response rating, Wheat ([10]; 62 g ai/ha): 60
- Plant response rating, Wheat ([10]; 125 g ai/ha): 70
- Plant response rating, Wheat ([10]; 250 g ai/ha): 60
- Plant response rating, Crabgrass, Large ([11]; 31 g ai/ha): 95
- Plant response rating, Crabgrass, Large ([11]; 62 g ai/ha): 98
- Plant response rating, Crabgrass, Large ([11]; 125 g ai/ha): 98
- Plant response rating, Crabgrass, Large ([11]; 250 g ai/ha): 98
- Plant response rating, Johnsongrass ([12]; 31 g ai/ha): 75
- Plant response rating, Johnsongrass ([12]; 62 g ai/ha): 95
- Plant response rating, Johnsongrass ([12]; 125 g ai/ha): 95
- Plant response rating, Johnsongrass ([12]; 250 g ai/ha): 90
- Plant response rating, Pigweed ([13]; 31 g ai/ha): 75
- Plant response rating, Pigweed ([13]; 62 g ai/ha): 85
- Plant response rating, Pigweed ([13]; 125 g ai/ha): 90
- Plant response rating, Pigweed ([13]; 250 g ai/ha): 100
- Plant response rating, Barnyardgrass ([14]; 31 g ai/ha): 85
- Plant response rating, Barnyardgrass ([14]; 62 g ai/ha): 95
- Plant response rating, Barnyardgrass ([14]; 125 g ai/ha): 95
- Plant response rating, Barnyardgrass ([14]; 250 g ai/ha): 98

Structure (SMILES): CN1CC(c2cccc(OC(F)(F)C(F)F)c2)C(C(=O)Nc2ccccc2C(F)(F)F)C1=O (stereo not shown) [Compound 431]
- Plant response rating, Corn (corn (Zea mays); 31 g ai/ha): 0
- Plant response rating, Corn (corn (Zea mays); 62 g ai/ha): 35
- Plant response rating, Corn (corn (Zea mays); 125 g ai/ha): 50
- Plant response rating, Corn (corn (Zea mays); 250 g ai/ha): 65
- Plant response rating, Blackgrass ([1]; 31 g ai/ha): 60
- Plant response rating, Blackgrass ([1]; 62 g ai/ha): 85
- Plant response rating, Blackgrass ([1]; 125 g ai/ha): 90
- Plant response rating, Blackgrass ([1]; 250 g ai/ha): 98
- Plant response rating, Oilseed Rape ([2]; 31 g ai/ha): 10
- Plant response rating, Oilseed Rape ([2]; 62 g ai/ha): 60
- Plant response rating, Oilseed Rape ([2]; 125 g ai/ha): 85
- Plant response rating, Oilseed Rape ([2]; 250 g ai/ha): 90
- Plant response rating, Lambsquarters ([3]; 31 g ai/ha): 10
- Plant response rating, Lambsquarters ([3]; 62 g ai/ha): 40
- Plant response rating, Lambsquarters ([3]; 125 g ai/ha): 50
- Plant response rating, Lambsquarters ([3]; 250 g ai/ha): 65
- Plant response rating, Waterhemp ([4]; 62 g ai/ha): 75
- Plant response rating, Waterhemp ([4]; 125 g ai/ha): 85
- Plant response rating, Waterhemp ([4]; 250 g ai/ha): 90
- Plant response rating, Soybean (soybean (Glycine max); 125 g ai/ha): 0
- Plant response rating, Ryegrass, Italian ([5]; 62 g ai/ha): 10
- Plant response rating, Ryegrass, Italian ([5]; 125 g ai/ha): 15
- Plant response rating, Ryegrass, Italian ([5]; 250 g ai/ha): 70
- Plant response rating, Nutsedge, Yellow ([6]; 31 g ai/ha): 0
- Plant response rating, Nutsedge, Yellow ([6]; 62 g ai/ha): 0
- Plant response rating, Nutsedge, Yellow ([6]; 125 g ai/ha): 0
- Plant response rating, Nutsedge, Yellow ([6]; 250 g ai/ha): 0
- Plant response rating, Galium ([7]; 31 g ai/ha): 95
- Plant response rating, Galium ([7]; 62 g ai/ha): 90
- Plant response rating, Galium ([7]; 125 g ai/ha): 100
- Plant response rating, Galium ([7]; 250 g ai/ha): 90
- Plant response rating, Velvetleaf ([8]; 62 g ai/ha): 25
- Plant response rating, Velvetleaf ([8]; 125 g ai/ha): 40
- Plant response rating, Velvetleaf ([8]; 250 g ai/ha): 30
- Plant response rating, Morningglory ([9]; 31 g ai/ha): 0
- Plant response rating, Morningglory ([9]; 62 g ai/ha): 10
- Plant response rating, Morningglory ([9]; 125 g ai/ha): 10
- Plant response rating, Morningglory ([9]; 250 g ai/ha): 10
- Plant response rating, Wheat ([10]; 62 g ai/ha): 5
- Plant response rating, Wheat ([10]; 125 g ai/ha): 70
- Plant response rating, Wheat ([10]; 250 g ai/ha): 90
- Plant response rating, Crabgrass, Large ([11]; 31 g ai/ha): 98
- Plant response rating, Crabgrass, Large ([11]; 62 g ai/ha): 100
- Plant response rating, Crabgrass, Large ([11]; 125 g ai/ha): 100
- Plant response rating, Crabgrass, Large ([11]; 250 g ai/ha): 100
- Plant response rating, Johnsongrass ([12]; 31 g ai/ha): 70
- Plant response rating, Johnsongrass ([12]; 62 g ai/ha): 75
- Plant response rating, Johnsongrass ([12]; 125 g ai/ha): 85
- Plant response rating, Johnsongrass ([12]; 250 g ai/ha): 90
- Plant response rating, Pigweed ([13]; 31 g ai/ha): 40
- Plant response rating, Pigweed ([13]; 62 g ai/ha): 60
- Plant response rating, Pigweed ([13]; 125 g ai/ha): 75
- Plant response rating, Pigweed ([13]; 250 g ai/ha): 85
- Plant response rating, Barnyardgrass ([14]; 31 g ai/ha): 90
- Plant response rating, Barnyardgrass ([14]; 62 g ai/ha): 95
- Plant response rating, Barnyardgrass ([14]; 125 g ai/ha): 95
- Plant response rating, Barnyardgrass ([14]; 250 g ai/ha): 98

— US12077503B2, “Substituted cyclic amides and their use as herbicides” (FMC CORPORATION, priority 2015, dated 2024)
